Results from US8524481B2, “Hide processing methods and compositions” (priority 2010, dated 2013).
Counter-ions that a name gives are not always drawn. Like-named read-outs stand apart in the source and are kept apart here. Square brackets hold non-standard residues; d marks the D form. Peptide text beside a SMILES is read from it. * marks the point of attachment. Sta = CC(C)C[C@H](N)[C@@H](O)CC(=O)O; Isovaleryl = CC(C)CC(=O)*

Key:
Strain B/GZN (MTCC 5566) = test: Antibiotic sensitivity by disk diffusion method, Strain B; type: cell-based, Pseudomonas aeruginosa; settings: Himedia antibiotic discs, Mueller Hinton Agar, 37° C. overnight
Protocol: (§1) The sensitivity of the strains against different antibiotics was determined by disk diffusion method using commercially available (Himedia) antibiotic discs. The representative of each group of antibiotic had been tested. The antibiotics used were Ampicillin (A10), Cephadroxil (Cq30), Chloramphenicol (C30), Cloxacillin (Cx30), Cephotaxime (Ce30), Ceftazidime (Ca30), Ciprofloxacin (Cf5), Doxycycline Hydrochloride (Do30), Gentamicin (G10), Metronidazole (Mt4), Neomycin (N30), Norfloxacin (Nx10), Polymyxin B (Pb100), Rifampicin (R15), Roxithromycin (Ro30), Tetracycline (T30), Trimethoprin (Tr30), Vancomycin (Va30). The concentrations of the antibiotics in microgram per disc were mentioned in parenthesis indicated above except for Polymyxin B where it is 100 units. Mueller Hinton Agar medium (Himedia-M173) was used to grow each of the microorganisms for antibiotic sensitivity test. The log phase culture of each isolate was diluted 100 times and poured on Mueller Hinton Agar (MHA) plates. It was swirled uniformly to distribute the culture throughout the plate. After waiting for 30 mins, the cultures were carefully pipetted out from the plates and the plates were allowed to dry. Then the antibiotic disks were placed onto the MHA surface using the dispenser provided with the antibiotic discs. The plates were incubated at 37° C. for overnight. The zones of inhibition were measured. The results were evaluated using National Committee for Clinical Laboratory Standard's (NCCLS) chart provided with the antibiotic discs by Himedia. The assay was repeated three times for each organism.

[1] = tested on: Strain A/SRC002 (MTCC 5564); test: Antibiotic sensitivity by disk diffusion method, Strain A; type: cell-based, Pseudomonas aeruginosa; settings: Himedia antibiotic discs, Mueller Hinton Agar, 37° C. overnight
Protocol: as §1

[2] = tested on: protease from strain SRC002 (MTCC 5564); test: Effect of inhibitors, metals and chemicals on protease activity; type: biochemical, Pseudomonas aeruginosa; settings: for effect on protease activity: EGTA 10 mM, 1,10 Phenanthrolin 2 mM, Phosphoramidone 500 μg/ml, Antipain 20 μM, Bestatin 50 μg/ml, Chymostatin 20 μM, E-64 2 μM, Pepstatin 1 μM, Ebelacetone-B 1 μM
[3] = concentration not given, crude enzyme for the partial inhibitors

Compound	antibiotic sensitivity (zones of inhibition evaluated by NCCLS chart) (Strain B/GZN (MTCC 5566))	antibiotic sensitivity (zones of inhibition evaluated by NCCLS chart) [1]	effect on enzyme activity [2, 3]	further results
COc1cc(Cc2cnc(N)nc2N)cc(OC)c1OC [Trimethoprim]	intermediate response	resistant		
C[C@H]1c2cccc(O)c2C(=O)C2=C(O)[C@]3(O)C(=O)C(C(N)=O)=C(O)[C@@H](N(C)C)[C@@H]3[C@@H](O)[C@@H]21 [Doxycycline hydrochloride, Doxycycline Hydrochloride]	resistant	resistant		
CN(C)[C@@H]1C(=O)C(C(N)=O)=C(O)[C@@]2(O)C(=O)C3=C(O)c4c(O)cccc4[C@@](C)(O)[C@H]3C[C@@H]12 [Tetracyclin, Tetracycline]	resistant	resistant		
[Cd] [Cd]				enzyme activity retained in the presence of metal ([2]; concentration not given): 34%
O=C(O)CN(CCOCCOCCN(CC(=O)O)CC(=O)O)CC(=O)O [EGTA]			completely inhibited	effect on protease activity [2]: completely inhibited
O=C(O)c1cn(C2CC2)c2cc(N3CCNCC3)c(F)cc2c1=O [Ciprofloxacin]	resistant	sensitive		
OCCS [beta-merceptoethanol]			partially inhibited	
CC1(C)S[C@@H]2[C@H](NC(=O)[C@H](N)c3ccccc3)C(=O)N2[C@H]1C(=O)O [Ampicillin]	resistant	resistant		
[Ag] [Ag]				enzyme activity retained in the presence of metal ([2]; concentration not given): 76%
[Cu] [Cu]				enzyme activity retained in the presence of metal ([2]; concentration not given): 50%
CC(C)C[C@H](NC(=O)[C@H]1O[C@@H]1C(=O)O)C(=O)NCCCCN=C(N)N [Strain E-64, E-64]			no inhibitory effect	effect on protease activity [2]: almost no effect
Cc1ncc([N+](=O)[O-])n1CCO [Metronidazole]		resistant		
Gentamicin [Gentamycine]	sensitive	resistant		
CO/N=C(\C(=O)N[C@@H]1C(=O)N2C(C(=O)O)=C(COC(C)=O)CS[C@H]12)c1csc(N)n1 [Cephotaxime]	intermediate response	resistant		
CC(C)C[C@H](NC(=O)[C@@H](NC(=O)N[C@@H](Cc1ccccc1)C(=O)O)[C@@H]1CCN=C(N)N1)C(=O)N[C@H](C=O)Cc1ccccc1 [Chymostatin]			no inhibitory effect	effect on protease activity [2]: almost no effect
OO [hydrogen peroxide]			partially inhibited	
CC(C)C[C@H](NP(=O)(O)O[C@@H]1O[C@@H](C)[C@H](O)[C@@H](O)[C@H]1O)C(=O)N[C@@H](Cc1c[nH]c2ccccc12)C(=O)O [Phosphoramidone]			completely inhibited	effect on protease activity [2]: completely inhibited
[Co] [Co]				enzyme activity retained in the presence of metal ([2]; concentration not given): 82%
[Zn] [Zn]				enzyme activity retained in the presence of metal ([2]; concentration not given): 34%

Compound	antibiotic sensitivity (zones of inhibition evaluated by NCCLS chart) (Strain B/GZN (MTCC 5566))	antibiotic sensitivity (zones of inhibition evaluated by NCCLS chart) [1]	effect on enzyme activity [2, 3]	further results
O=C(O)CN(CCN(CC(=O)O)CC(=O)O)CC(=O)O [EDTA]				effect on enzyme activity [2]: inactivated
CN[C@H](CC(C)C)C(=O)N[C@H]1C(=O)N[C@@H](CC(N)=O)C(=O)N[C@H]2C(=O)N[C@H]3C(=O)N[C@H](C(=O)N[C@H](C(=O)O)c4cc(O)cc(O)c4-c4cc3ccc4O)[C@H](O)c3ccc(c(Cl)c3)Oc3cc2cc(c3O[C@@H]2O[C@H](CO)[C@@H](O)[C@H](O)[C@H]2O[C@H]2C[C@](C)(N)[C@H](O)[C@H](C)O2)Oc2ccc(cc2Cl)[C@H]1O [Vancomycin]	resistant	resistant		
CC(C)(O/N=C(\C(=O)N[C@@H]1C(=O)N2C(C(=O)[O-])=C(C[n+]3ccccc3)CS[C@H]12)c1csc(N)n1)C(=O)O [Ceftazidime]	intermediate response	resistant		
O=C(N[C@H](CO)[C@H](O)c1ccc([N+](=O)[O-])cc1)C(Cl)Cl [Cloramphenicol, Chloramphenicol]	intermediate response	resistant		
Triton X 100			partially inhibited	
[Ni] [Ni]				enzyme activity retained in the presence of metal ([2]; concentration not given): 70%
Polymyxin B [PolymyxinB]	resistant	resistant		
[Cr] [Cr]				enzyme activity retained in the presence of metal [2]: up to 90%
CC(C)C[C@H](NC(=O)[C@@H](O)[C@H](N)Cc1ccccc1)C(=O)O [Bestatin]			no inhibitory effect	effect on protease activity [2]: almost no effect
[Pb] [Pb]				enzyme activity retained in the presence of metal ([2]; concentration not given): 50%
NC[C@@H]1O[C@H](O[C@H]2[C@@H](O)[C@H](O[C@@H]3[C@@H](O)[C@H](N)C[C@H](N)[C@H]3O[C@H]3O[C@H](CN)[C@@H](O)[C@H](O)[C@H]3N)O[C@@H]2CO)[C@H](N)[C@@H](O)[C@@H]1O [Neomycine, Neomycin]	intermediate response	sensitive		
c1cnc2c(c1)ccc1cccnc12 [1,10 Phenanthrolin]			completely inhibited	effect on protease activity [2]: completely inhibited
[Hg] [Hg]			complete inhibition	
[Al] [Al]				enzyme activity retained in the presence of metal ([2]; concentration not given): 70%
Cc1onc(-c2ccccc2Cl)c1C(=O)N[C@@H]1C(=O)N2[C@@H]1SC(C)(C)[C@@H]2C(=O)O [Cloxacillin]		resistant		
CC(C)CC(=O)N[C@H](C(=O)N[C@H](C(=O)N[C@@H](CC(C)C)[C@@H](O)CC(=O)N[C@@H](C)C(=O)N[C@@H](CC(C)C)[C@@H](O)CC(=O)O)C(C)C)C(C)C [Pepstatin] (Isovaleryl-VV[Sta]A[Sta]-OH)			no inhibitory effect	effect on protease activity [2]: almost no effect
CC[C@@H](C)[C@@H](O)[C@H](C)C(=O)[C@H](C)/C=C(\C)C[C@H](C)[C@@H]1OC(=O)[C@H]1CC [Ebelacetone-B]			no inhibitory effect	effect on protease activity [2]: almost no effect
CCn1cc(C(=O)O)c(=O)c2cc(F)c(N3CCNCC3)cc21 [Norfloxacine, Norfloxacin]	resistant	sensitive		
CC1=C(C(=O)O)N2C(=O)[C@@H](NC(=O)[C@H](N)c3ccc(O)cc3)[C@H]2SC1 [Cephadroxil]		resistant		
